Tests used:
[1] = target: Carbonic anhydrase 5A, mitochondrial (Homo sapiens, UniProt P35218)
Carbonic anhydrase 12 = Carbonic anhydrase 12 (Homo sapiens, UniProt O43570)
Carbonic anhydrase 6 = Carbonic anhydrase 6 (Homo sapiens, UniProt P23280)
Carbonic anhydrase 13 = Carbonic anhydrase 13 (Mus musculus, UniProt Q9D6N1)
Carbonic anhydrase 14 = Carbonic anhydrase 14 (Homo sapiens, UniProt Q9ULX7)
[2] = target: Carbonic anhydrase 5B, mitochondrial (Homo sapiens, UniProt Q9Y2D0)
Carbonic anhydrase 3 = Carbonic anhydrase 3 (Homo sapiens, UniProt P07451)
Sequence of Carbonic anhydrase 3 (P07451 whole entry): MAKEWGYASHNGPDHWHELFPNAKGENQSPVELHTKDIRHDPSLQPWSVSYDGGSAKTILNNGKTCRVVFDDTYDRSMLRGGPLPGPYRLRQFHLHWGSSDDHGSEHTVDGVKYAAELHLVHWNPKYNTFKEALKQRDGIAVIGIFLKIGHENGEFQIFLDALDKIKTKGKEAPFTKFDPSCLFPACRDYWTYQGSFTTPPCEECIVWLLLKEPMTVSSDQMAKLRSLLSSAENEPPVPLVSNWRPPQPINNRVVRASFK

Carbonic anhydrase 7 = Carbonic anhydrase 7 (Homo sapiens, UniProt P43166)
Sequence of Carbonic anhydrase 7 (P43166 whole entry): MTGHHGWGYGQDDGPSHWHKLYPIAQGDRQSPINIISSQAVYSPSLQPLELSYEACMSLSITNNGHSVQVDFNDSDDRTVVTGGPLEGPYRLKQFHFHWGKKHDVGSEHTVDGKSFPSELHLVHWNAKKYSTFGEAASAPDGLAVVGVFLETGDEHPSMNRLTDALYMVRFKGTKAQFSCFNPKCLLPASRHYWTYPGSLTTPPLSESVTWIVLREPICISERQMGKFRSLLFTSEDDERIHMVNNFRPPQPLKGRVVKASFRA

Sequence of Carbonic anhydrase 13 (Q9D6N1 whole entry): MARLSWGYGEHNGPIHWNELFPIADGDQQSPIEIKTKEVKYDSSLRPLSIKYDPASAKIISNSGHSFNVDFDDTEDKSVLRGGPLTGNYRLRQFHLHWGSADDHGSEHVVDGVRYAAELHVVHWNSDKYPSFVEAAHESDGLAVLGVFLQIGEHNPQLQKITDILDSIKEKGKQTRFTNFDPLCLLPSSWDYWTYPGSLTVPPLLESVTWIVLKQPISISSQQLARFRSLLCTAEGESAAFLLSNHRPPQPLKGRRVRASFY
Sequence of Carbonic anhydrase 6 (P23280 whole entry): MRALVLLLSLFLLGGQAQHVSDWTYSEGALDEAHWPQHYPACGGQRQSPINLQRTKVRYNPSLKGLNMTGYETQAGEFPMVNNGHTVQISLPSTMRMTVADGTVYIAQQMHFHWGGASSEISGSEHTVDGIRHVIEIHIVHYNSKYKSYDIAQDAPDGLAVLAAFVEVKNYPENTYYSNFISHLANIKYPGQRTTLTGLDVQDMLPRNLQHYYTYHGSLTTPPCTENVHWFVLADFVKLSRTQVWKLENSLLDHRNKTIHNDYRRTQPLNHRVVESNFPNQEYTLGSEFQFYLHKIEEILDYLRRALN
Sequence of Carbonic anhydrase 12 (O43570 whole entry): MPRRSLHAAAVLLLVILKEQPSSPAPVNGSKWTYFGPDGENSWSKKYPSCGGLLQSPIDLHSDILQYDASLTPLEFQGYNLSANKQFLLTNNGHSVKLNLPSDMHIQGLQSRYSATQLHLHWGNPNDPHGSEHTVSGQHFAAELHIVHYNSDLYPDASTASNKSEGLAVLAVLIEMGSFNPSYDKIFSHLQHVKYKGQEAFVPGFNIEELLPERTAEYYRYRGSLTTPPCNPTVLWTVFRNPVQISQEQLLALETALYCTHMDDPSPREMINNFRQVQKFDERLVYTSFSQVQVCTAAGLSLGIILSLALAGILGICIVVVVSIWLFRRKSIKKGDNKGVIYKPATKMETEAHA
Sequence of Carbonic anhydrase 14 (Q9ULX7 whole entry): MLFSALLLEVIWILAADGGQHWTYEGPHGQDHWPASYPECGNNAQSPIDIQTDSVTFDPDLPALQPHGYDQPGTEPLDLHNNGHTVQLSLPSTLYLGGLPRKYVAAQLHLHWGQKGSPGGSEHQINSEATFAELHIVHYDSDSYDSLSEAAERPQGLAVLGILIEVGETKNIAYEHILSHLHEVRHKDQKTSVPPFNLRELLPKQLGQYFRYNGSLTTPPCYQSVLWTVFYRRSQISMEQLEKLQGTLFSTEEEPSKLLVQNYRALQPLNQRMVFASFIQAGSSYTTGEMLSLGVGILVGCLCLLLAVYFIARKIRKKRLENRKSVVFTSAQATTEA
Sequence of Carbonic anhydrase 5B, mitochondrial (Q9Y2D0 whole entry): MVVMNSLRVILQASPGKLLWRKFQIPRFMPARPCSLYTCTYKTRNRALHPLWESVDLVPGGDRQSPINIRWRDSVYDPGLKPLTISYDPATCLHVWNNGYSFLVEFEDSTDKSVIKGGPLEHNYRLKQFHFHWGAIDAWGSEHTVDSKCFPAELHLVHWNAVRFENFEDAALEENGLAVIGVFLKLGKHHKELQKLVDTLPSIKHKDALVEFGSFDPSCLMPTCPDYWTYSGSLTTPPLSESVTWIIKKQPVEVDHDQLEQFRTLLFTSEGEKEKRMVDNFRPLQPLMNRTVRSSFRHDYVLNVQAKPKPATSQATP
Sequence of Carbonic anhydrase 5A, mitochondrial (P35218 whole entry): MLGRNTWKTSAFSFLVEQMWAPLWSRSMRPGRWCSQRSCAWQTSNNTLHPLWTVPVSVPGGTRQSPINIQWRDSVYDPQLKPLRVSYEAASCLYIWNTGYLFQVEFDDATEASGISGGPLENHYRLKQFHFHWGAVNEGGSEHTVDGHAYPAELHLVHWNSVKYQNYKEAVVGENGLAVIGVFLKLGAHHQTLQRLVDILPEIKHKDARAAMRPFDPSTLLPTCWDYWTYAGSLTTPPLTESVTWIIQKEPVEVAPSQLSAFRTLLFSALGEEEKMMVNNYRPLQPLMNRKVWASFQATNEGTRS

| SMILES | Ki [1] | Ki (Carbonic anhydrase 12) | Ki (Carbonic anhydrase 6) | Ki (Carbonic anhydrase 13) | Ki (Carbonic anhydrase 14) | Ki [2] | Ki (Carbonic anhydrase 3) | Ki (Carbonic anhydrase 7) |
| --- | --- | --- | --- | --- | --- | --- | --- | --- |
| NS(=O)(=O)OCCCCCCCCOS(N)(=O)=O | 1200 nM | 7.9 nM | 1020 nM | 569 nM | 605 nM | 1460 nM | 1130 nM |  |
| CCCCCCCCCCOS(N)(=O)=O [DECYL SULFAMATE] |  |  |  | 956 nM |  |  |  |  |
| NS(=O)(=O)OCCCCCCCCCCOS(N)(=O)=O |  |  |  | 960 nM |  |  |  |  |
| CCCCCCCCOS(N)(=O)=O [OCTYL SULFAMATE] | 1250 nM | 7 nM | 795 nM | 1130 nM | 390 nM | 624 nM | 9100 nM | 76.6 nM |

Source: ChEMBL document CHEMBL1155218, “Carbonic anhydrase inhibitors. Comparison of aliphatic sulfamate/bis-sulfamate adducts with isozymes II and IX as a platform for designing tight-binding, more isoform-selective inhibitors” (J Med Chem, 2009)
